Laboratory results taken from ChEMBL document CHEMBL5380844, “Discovery of a Novel, Potent, Orally Active, and Safe Inhibitor Targeting Human Mitochondrial RNA Polymerase” (J Med Chem, 2023).

Key:
[1] = Inhibition of ND1 transcript level in human A2780 cells at 500 nM measured after 12 hrs by RT-qPCR analysis relative to control; format: functional
A2780 = assay: Antiproliferative activity against human A2780 cells incubated for 168 hrs by SRB method; format: functional, cell-based; conditions: A2780, 168 h
[2] = Apparent permeability across apical to basolateral side in human Caco-2 cells at 3 uM incubated for 2 hrs by LC-MS/MS analysis; format: ADME, cell-based

SMILES | IC50 (A2780) [µM] | Papp A→B at 2 h, 3 µM [2] [×10⁻⁶ cm/s] | inhibition at 0.5 µM [1] [%]
C[C@@H](Oc1ccc2c(-c3ccc(F)cc3Cl)cc(=O)oc2c1)C(=O)Nc1ncco1 | 1.22 |  | 81
C[C@@H](Oc1ccc2c(C3CCCCC3)cc(=O)oc2c1)C(=O)N1CC2CCC(C1)N2 | 0.252 |  | 31
COCCNC(=O)[C@@H](C)Oc1ccc2c(-c3ccc(F)cc3Cl)cc(=O)oc2c1 | 0.152 |  | 25
C[C@@H](Oc1ccc2c(-c3ccc(F)cc3Cl)cc(=O)oc2c1)C(=O)Nc1ccccn1 | 0.894 |  | 77
C[C@@H](Oc1ccc2c(-c3ccc(F)cc3Cl)cc(=O)oc2c1)C(=O)NCCN(C)C | 0.2 |  | 31
C[C@@H](Oc1ccc2c(-c3ccc(Cl)cc3)cc(=O)oc2c1)C(=O)N1CC2CCC(C1)N2 |  |  | 24
CC(C)c1cc(=O)oc2cc(O[C@H](C)C(=O)N3CC4CCC(C3)N4)ccc12 | 2.23 |  | 93
O=C(O)[C@H]1CCCN(C(=O)C2(Oc3ccc4c(-c5ccc(F)cc5Cl)cc(=O)oc4c3)CCC2)C1 | 0.692 |  | 42
C[C@@H](Oc1ccc2c(ccn2-c2ccc(F)cc2Cl)c1)C(=O)N1CCC[C@H](C(=O)O)C1 | > 10 |  | 97
C[C@@H](Oc1ccc2c(-c3ccc(F)cc3Cl)cc(=O)oc2c1)C(=O)N1CCOCC1 | 0.093 |  | 25
C[C@@H](Oc1ccc2c(-c3ccc(F)cc3Cl)cc(=O)oc2c1)C(=O)N1CCSCC1 | 0.302 |  | 34
CC(C)(Oc1ccc2c(-c3ccc(F)cc3Cl)cc(=O)oc2c1)C(=O)N1CCC[C@H](C(=O)O)C1 | 0.562 |  | 43
CC(=O)NCCNC(=O)[C@@H](C)Oc1ccc2c(-c3ccc(F)cc3Cl)cc(=O)oc2c1 | 0.181 |  | 26
C[C@@H](Oc1ccc2c(-c3ccc(F)cc3Cl)coc2c1)C(=O)N1CCC[C@H](C(=O)O)C1 | > 10 |  | 105
C[C@@H](Oc1ccc2c(-c3ccc(F)cc3Cl)cc(=O)oc2c1)C(=O)N1C2CCC1CNC2 | 0.065 |  | 15
C[C@@H](Oc1ccc2c(-c3ccc(F)cc3Cl)cc(=O)oc2c1)C(=O)NCc1ccco1 | 0.405 |  | 41
C[C@@H](Oc1ccc2c(-c3ccc(F)cc3Cl)cc(=O)oc2c1)C(=O)N1CC2(COC2)C1 | 0.758 |  | 68
O=C(O)[C@H]1CCCN(C(=O)COc2ccc3c(-c4ccc(F)cc4Cl)cc(=O)oc3c2)C1 | 0.373 |  | 39
Nc1cc(N2CCCCC2)nc(N)[n+]1[O-] [MINOXIDIL] |  | 6.79 | 

Further lines, with some results ahead:

IC50 (A2780) [µM] | Papp A→B at 2 h, 3 µM [2] [×10⁻⁶ cm/s] | SMILES | inhibition at 0.5 µM [1] [%]
0.058 |  | Cc1cc(Cl)ccc1-c1cc(=O)oc2cc(O[C@H](C)C(=O)N3CC4CCC(C3)N4)ccc12 | 12
0.031 |  | Cc1ccccc1-c1cc(=O)oc2cc(O[C@H](C)C(=O)N3CC4CCC(C3)N4)ccc12 | 8
0.246 |  | C[C@@H](Oc1ccc2c(-c3cccc(Cl)c3)cc(=O)oc2c1)C(=O)N1CC2CCC(C1)N2 | 32
0.562 |  | C[C@@H](Oc1ccc2c(-c3cccc4ccccc34)cc(=O)oc2c1)C(=O)N1CC2CCC(C1)N2 | 67
0.074 |  | Cc1cc(C)c(-c2cc(=O)oc3cc(O[C@H](C)C(=O)N4CC5CCC(C4)N5)ccc23)c(C)c1 | 16
0.832 |  | C[C@@H](Oc1ccc2c(-c3ccncc3)cc(=O)oc2c1)C(=O)N1CC2CCC(C1)N2 | 78
0.453 |  | C[C@@H](Oc1ccc2c(-c3ccc(F)cc3)cc(=O)oc2c1)C(=O)N1CC2CCC(C1)N2 | 44
1.62 |  | C[C@@H](Oc1ccc2c(-c3cc4ccccc4s3)cc(=O)oc2c1)C(=O)N1CC2CCC(C1)N2 | 85
0.052 |  | C[C@@H](Oc1ccc2c(-c3ccccc3Cl)cc(=O)oc2c1)C(=O)N1CC2CCC(C1)N2 | 15
0.216 |  | C[C@@H](Oc1ccc2c(-c3ccccc3F)cc(=O)oc2c1)C(=O)N1CC2CCC(C1)N2 | 33
0.056 |  | C[C@@H](Oc1ccc2c(-c3ccc(Cl)cc3Cl)cc(=O)oc2c1)C(=O)N1CC2CCC(C1)N2 | 24
